Assay [1] deals with IGRP206-214/H-2K^d on antigen-presenting cells (mouse) (UniProt P01902). Kind of assay: cell-based or functional assay.
The target of another assay is T1, H-2Db (Mus musculus, UniProt P01899).
T1 sequence (P01899 25-362): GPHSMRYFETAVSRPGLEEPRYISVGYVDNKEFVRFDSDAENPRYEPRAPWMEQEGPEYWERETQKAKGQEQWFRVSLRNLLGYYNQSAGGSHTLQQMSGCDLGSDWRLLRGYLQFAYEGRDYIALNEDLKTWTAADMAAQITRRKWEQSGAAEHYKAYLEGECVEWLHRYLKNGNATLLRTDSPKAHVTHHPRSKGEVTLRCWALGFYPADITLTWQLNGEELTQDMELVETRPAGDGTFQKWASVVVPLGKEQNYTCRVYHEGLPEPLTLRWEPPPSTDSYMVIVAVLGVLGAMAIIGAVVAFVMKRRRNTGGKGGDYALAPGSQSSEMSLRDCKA
T1 sequence (P01887 21-119 partner): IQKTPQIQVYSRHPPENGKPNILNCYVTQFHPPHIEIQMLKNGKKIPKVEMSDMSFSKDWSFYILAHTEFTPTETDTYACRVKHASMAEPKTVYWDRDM
Kind of assay: Presentation of IGRP peptide by MHC class I molecule.

In assay [2] the test system is T-cells from the islets of 12-week-old female NOD mice. In words: Interferon-γ ELISpot of T-cells cultured from NOD islets (Example 4). The assay is classed as cell-based, mouse. The method, then: Using procedures described in Example 1, we have cultured T-cells from the islets of 12-week-old female NOD mice. T-cells were assayed for recognition of several different IGRP peptides by interferon-γ ELISpot.

A further assay has as its system AI12.B1.3 TCR. Kind of assay: TCR transfectant peptide recognition, IL-2 release (58 α−β− cells, RMA-S/K^d presenters). It is filed as cell-based, mouse. The settings on record: FIG. 2. The text has this:
(§1) T cell receptors from the previously isolated NOD-derived β cell-autoreactive class I MHC-restricted T cell clones AI4, AI12.B1.1, AI12.B1.2, AI12.B1.3, AI15.A10, AI15.F5 (DiLorenzo et al., 1998), and 8.3 (Verdaguer et al., 1997) were expressed in the TCR^− T cell hybridoma 58α^−β^− (engineered to express the TCR ζ chain and CD8αβ and provided by H.-C. Chang, Dana Farber, Boston, Mass., USA) as described (Serreze et al., 2001). TCR expression was verified by flow cytometric analysis of growing clones using an antibody to CD3ε (145-2C11). RMA-S/K^d cells incubated overnight at 28° C. were used to present exogenously added synthetic peptides at concentrations as indicated in the figures. Peptide recognition by the TCR transfectants was measured by IL-2 production as previously described (Serreze et al., 2001).

The subject of another assay is AI15.F5 TCR. Described as above. The settings on record: FIG. 2. The assay is classed as cell-based, mouse.
Excerpt: as §1

Another assay has as its system 8.3-CD8+ T-cells. Kind of assay: Proliferation and cytokine secretion of naive splenic 8.3-CD8+ T-cells with peptide-pulsed NOD splenocytes. The assay is classed as cell-based, mouse. The following applies: FIG. 5, peptide 0.01-1 μM. The method, then: Naïve or NRP-A7-differentiated (see below) splenic CD8+ T-cells from 8.3-NOD mice (2×10^4/well) were incubated, in duplicate, with peptide-pulsed (0.01, 0.1 and 1 μM), γ-irradiated (3,000 rad) NOD splenocytes (10^5/well) for 3 days at 37° C. in 5% CO2. Cultures were pulsed with 1 μCi of (^3H)-thymidine during the last 18 hours of culture and harvested.
(§2) Naïve splenic CD8+ T-cells from 8.3-NOD mice (2×10^4/well) were incubated with peptide-pulsed (0.001, 0.01, 0.1, 1 and/or 10 μM) γ-irradiated NOD splenocytes (10^5/well) in 96-well plates for 48 hours at 37° C. Short-term islet-derived T-cell lines from peptide-treated or unmanipulated NOD mice (adjusted at 2×10^4 CD8+ T-cells/well) were tested the same way, but using 10 μM of peptide. The supernatants (100 μl/well) were assayed in duplicate for IL-2, IL-4, and/or IFN-γ content by ELISA using commercially available kits (Genzyme Diagnostics, Cambridge, Mass.).

Assay [3] has as its system 8.3-CD8+ splenocytes of 8.3-NOD mice. Kind of assay: Tolerogenic activity of APLs in 8.3-NOD mice. The following applies: single injection 100 μg in PBS, analysis 7 days later. It is filed as in vivo, mouse. The method, then:
(§3) Cohorts of 3-to-4 week-old female NOD mice were injected with 1-100 μg of peptide in PBS intraperitoneally. This was repeated every 2 weeks until the 7-8th week, and every 3 weeks thereafter. Mice were monitored for development of hyperglycemia until at least the 28th week of age. The 8.3-CD8+ T-cell tolerogenic activity of APLs was determined by treating 8-15 wk-old 8.3-NOD mice with one i.p. injection of 100 μg of peptide. […] Mice were sacrificed a week after treatment, and their spleens analyzed for presence of 8.3-CD8+ T-cells by flow cytometry.

A further assay deals with female NOD mice. Kind of assay: Repeated peptide treatment of female NOD mice, diabetes development and islet-associated CD8+ T-cells. It is filed as in vivo, mouse. The method, then:
as §3
We next investigated whether the anti-diabetogenic activity of the above APLs was a function of “avidity”, as defined not only by the affinity of individual peptide/MHC complexes for specific TCRs, but also by the absolute number of peptide/MHC complexes that are available for recognition (i.e. dose of peptide). This was done by treating cohorts of female NOD mice with repeated injections of TUM (negative control), NRP-I4, NRP-A7 and NRP-V7 (in PBS) over a wide dose range, and by following the mice for development of diabetes (FIG. 7A, top). Starting at 3-4 weeks of age, mice received one injection of peptide i.p. every 2 (first three doses) or 3 weeks after initiation of treatment. Mice were sacrificed at diabetes onset or at the end of the follow-up period (28-32 weeks), to investigate the effects of treatment on the size and tetramer-binding avidity of the islet-associated IGRP206-214-reactive CD8+ T-cell subpopulation (FIG. 7A, bottom).

Assay [4] relates to CD8+ cells derived from pancreatic islets of wild-type NOD mice. In words: Tetramer staining and avidity of NOD islet-derived CD8+ T-cells (Example 3). It is filed as cell-based, mouse. The following applies: FIG. 9B, at least some animals. As to the method:
Tetramers were prepared and used as described in (Amrani et al., 2000). Hand-picked pancreatic islets from individual mice were cultured in complete media supplemented with 0.5 U/ml of Takeda rhIL-2 for 7-9 days. T-cells (10^6 per 20 μl) were then stained for 45 minutes on ice in 20 μl of wash media (0.2% sodium bicarbonate, 0.1% sodium azide and 2% FBS in RPMI-1640) containing anti-CD8-FITC (clone YTS169.4; 0.5 μg) and tetramer (85.5 nM). After washing, the cells were resuspended in wash media and analyzed with a flow cytometer (Becton Dickinson). For the analysis of tetramer staining at equilibrium, T-cells were stained for 2 hours at room temperature with 20 μl of wash media (0.2% sodium bicarbonate, 0.1% sodium azide and 2% FBS in RPMI-1640) containing anti-CD8α-FITC (clone YTS169.4; 0.5 μg) and different concentrations of tetramers (8.55, 17.1, 42.75 and 85.5 nM). After washing, cells were resuspended in 100 μl of wash media, fixed in 0.4% paraformaldehide and analyzed with a flow cytometer. The apparent Kd values were determined by plotting the negative reciprocal of the slope of the line fit to Scatchard plots of fluorescence units (median of CD8+ population tetramer staining)/nM versus fluorescence units.

In assay [5] the test system is CD8+ cells propagated from islets of NOD mice. In words: IFN-γ secretion by islet-derived CD8+ T-cells in response to IGRP peptides. The assay is classed as cell-based, mouse. The settings on record: peptide 10 μM, pre-diabetic or acutely diabetic NOD mice.
Excerpt: Islet-derived CD8+ T-cells from peptide-treated or unmanipulated NOD mice were generated by culturing pancreatic islets in complete media (CM: RPMI 1640 media containing 10% fetal bovine serum), containing 0.5 U/ml Takeda rhIL-2 (10-50 islets/well in 24-well plates). The in vivo-activated, IL-2R+ lymphocytes migrating from islets into the culture media were used in functional assays within 6-9 days of islet isolation (Amrani et al., 2000; Anderson et al., 1999).
as §2

As for 8.3 T cell receptor (TCR), in assay [1], the half-maximal activity, 51Cr-release assay with 8.3 CTL on peptide-pulsed RMA-S/K^d cells came out at 50 µM.

Take CALTSLTTM [IGRP296-304]: the “presentation by MHC class I molecule” value with H-2Db was “is presented by the MHC class I molecule H-2Db”.

On to FLWSVFWLI [IGRP152-160], for which the “T-cell reactivity by interferon-γ ELISpot” value in [2] is “Reactivity was found”.

KYNKANVFL [NRP-V7, reference compound]: in the assay on AI12.B1.3 TCR, the “recognition by AI12.B1.3 (IL-2 release)” value is reported as “recognized”. Besides, the “recognition by AI15.F5 (IL-2 release)” value in the assay on AI15.F5 TCR was “responded”. The “agonistic activity on 8.3-CD8+ T-cells” value in the assay with 8.3-CD8+ T-cells is “superior agonistic activity”. Moreover, the “8.3-CD8+ splenocytes after treatment” value in [3] was “fewer 8.3-CD8+ splenocytes”. For the same substance, the anti-diabetogenic activity result with female NOD mice (any dose) is recorded as “not significantly protective”. Moreover, in the assay with female NOD mice (intermediate doses NRP-A7, high doses NRP-I4, low or high doses NRP-V7, high doses IGRP206-214), the “protection from diabetes by chronic treatment (discussion summary)” value is recorded as “only afforded marginal protection from disease”. Further, in the assay with female NOD mice (over a range of doses), the “NRP-V7-reactive CD8+ cells in the islets” value is recorded as “almost completely devoid”.

Consider “TYYGFLNFM [peptide 39, text numbering of the IGRP library]”, for which the “presence of peptide-reactive CD8+ T-cells in islets by tetramers” value in assay [4] is “confirmed the presence”. Moreover, the “mice with islet CD8+ T-cells responding to the peptide (IFN-γ secretion)” value in assay [5] is listed as “a significant number of mice also mounted responses”.

(Values after patent US8758767B2, “Antigens targeted by prevalent pathogennic T cells in type 1 diabetes and uses thereof” (Albert Einstein College of Medicine of Yeshiva University, priority 2003, dated 2014).)
